Reference: PubChem BioAssay (NCI)
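Tested at 5 concentrations; 48 h exposure; 96-well plates; endpoints linearly interpolated, else capped at highest concentration. GI50: concentration for 50% inhibition of growth. TGI: concentration producing complete growth inhibition.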

How the values were obtained:
Assay in all cases: NCI anticancer screen, dose series, 48 h
A498 renal = system: A498 renal
BT-549 breast = system: BT-549 breast
K-562 leukemia = system: K-562 leukemia
MOLT-4 leukemia = system: MOLT-4 leukemia
NCI-H522 lung = system: NCI-H522 lung
RXF 393 renal = system: RXF 393 renal
SK-MEL-2 melanoma = system: SK-MEL-2 melanoma

## COc1cc(Nc2cn[nH]c2-c2ccc(Cl)cc2)cc(OC)c1OC
A498 renal
  GI50: 4.58 µM
  TGI: 23.8 µM
BT-549 breast
  GI50: 3.37 µM
  TGI: 19.2 µM
K-562 leukemia
  GI50: 2.49 µM
  TGI: 97.2 µM
MOLT-4 leukemia
  GI50: 3.65 µM
  TGI: > 80.2 µM
NCI-H522 lung
  GI50: 6.81 µM
  TGI: 37.5 µM
RXF 393 renal
  GI50: 10.4 µM
  TGI: > 64.1 µM
SK-MEL-2 melanoma
  GI50: 6.82 µM
  TGI: 41.5 µM

## COc1ncnc(C2CC2)c1-c1ncc2cnn(Cc3ccc(-c4nc(C(F)(F)F)cn4C(C)C)cc3)c2n1
A498 renal
  GI50: 24.5 µM
  TGI: > 100 µM
BT-549 breast
  GI50: 21 µM
  TGI: 80.5 µM
K-562 leukemia
  GI50: 13.9 µM
  TGI: > 100 µM
MOLT-4 leukemia
  GI50: 17.5 µM
  TGI: > 100 µM
NCI-H522 lung
  GI50: 8.52 µM
  TGI: 48.3 µM
RXF 393 renal
  GI50: 6.5 µM
  TGI: 39.8 µM
SK-MEL-2 melanoma
  GI50: 14.5 µM
  TGI: 30.4 µM

## Cn1cc(C2=C(c3ccc4ccccc4c3)C(=O)NC2=O)c2ccccc21
A498 renal
  GI50: > 25 µM
  TGI: > 25 µM
BT-549 breast
  GI50: > 25 µM
  TGI: > 25 µM
K-562 leukemia
  GI50: 2.09 µM
  TGI: > 25 µM
MOLT-4 leukemia
  GI50: > 20.1 µM
  TGI: > 25 µM
NCI-H522 lung
  GI50: 12.1 µM
  TGI: > 25 µM
RXF 393 renal
  GI50: > 25 µM
  TGI: > 25 µM
SK-MEL-2 melanoma
  GI50: > 25 µM
  TGI: > 25 µM

## Ic1ccc(Nc2nc3nonc3nc2Nc2ccc(I)cc2)cc1
A498 renal
  GI50: 0.0829 µM
  TGI: 0.418 µM
BT-549 breast
  GI50: 0.301 µM
  TGI: 1.36 µM
K-562 leukemia
  GI50: 0.091 µM
  TGI: > 100 µM
MOLT-4 leukemia
  GI50: 0.256 µM
  TGI: 1.06 µM
SK-MEL-2 melanoma
  GI50: 0.143 µM
  TGI: 0.692 µM

## O=Cc1cc2c(cc1-c1c(C=O)ccc3c1OCO3)OCO2
BT-549 breast
  TGI: > 10 µM
K-562 leukemia
  TGI: > 10 µM
MOLT-4 leukemia
  TGI: > 10 µM

## C[C@H]1c2cccc(O)c2C(O)=C2C(=O)[C@]3(O)C(O)=C(C(N)=O)C(=O)[C@@H](N(C)C)[C@@H]3[C@@H](O)[C@@H]21
A498 renal
  GI50: 2.86 µM
  TGI: 10.4 µM
BT-549 breast
  GI50: 3.12 µM
  TGI: 9.88 µM
MOLT-4 leukemia
  GI50: 3.57 µM
  TGI: 15 µM
NCI-H522 lung
  GI50: 3.16 µM
  TGI: 12.4 µM
RXF 393 renal
  GI50: 3.79 µM
  TGI: 33.9 µM
SK-MEL-2 melanoma
  GI50: 3.13 µM
  TGI: 8.99 µM

## COc1cc(C(=O)c2cc(C)c3[nH]c4ccc(Cl)cc4c3c2C)cc(OC)c1OC
A498 renal
  GI50: 0.0242 µM
  TGI: 0.0805 µM
BT-549 breast
  GI50: 0.0423 µM
  TGI: 4.55 µM
K-562 leukemia
  GI50: 0.035 µM
  TGI: > 100 µM
MOLT-4 leukemia
  GI50: 0.046 µM
  TGI: > 47.4 µM
NCI-H522 lung
  GI50: 0.0291 µM
  TGI: 1.95 µM
SK-MEL-2 melanoma
  GI50: 0.575 µM
  TGI: 17.3 µM

## C=C(C)[C@@]12OC3(/C=C/C=C/CCCCC)O[C@@H]1[C@@H]1[C@@H]4O[C@]4(CO)[C@@H](O)[C@]4(O)C(=O)C(C)=C[C@H]4[C@@]1(O3)[C@H](C)[C@H]2OC(=O)c1ccccc1
A498 renal
  GI50: < 0.01 µM
BT-549 breast
  GI50: 1.66 µM
  TGI: 4.38 µM
K-562 leukemia
  GI50: < 0.01 µM
  TGI: 1.87 µM
NCI-H522 lung
  GI50: 1.27 µM
  TGI: 2.71 µM
RXF 393 renal
  GI50: 1.87 µM
  TGI: 3.49 µM
SK-MEL-2 melanoma
  GI50: 1.48 µM
  TGI: 3.85 µM

## CC1OC2CC(=O)OC2C2=C1C(=O)c1c(O)cccc1C2=O (configuration not stated)
A498 renal
  GI50: 0.348 µM
  TGI: 1.38 µM
BT-549 breast
  GI50: 0.177 µM
  TGI: 0.368 µM
K-562 leukemia
  GI50: 0.0298 µM
  TGI: > 100 µM
NCI-H522 lung
  GI50: < 0.0168 µM
  TGI: 0.0402 µM
RXF 393 renal
  GI50: 0.0195 µM
  TGI: 0.0499 µM
SK-MEL-2 melanoma
  GI50: 0.0885 µM
  TGI: 0.272 µM

## Clc1ccc2c(NCCCNc3nccc(Nc4ccc(Br)cc4)n3)ccnc2c1
A498 renal
  GI50: 1.22 µM
  TGI: 2.48 µM
BT-549 breast
  GI50: 1.68 µM
  TGI: 3.4 µM
NCI-H522 lung
  GI50: 1.93 µM
  TGI: 3.52 µM
SK-MEL-2 melanoma
  GI50: 2.1 µM
  TGI: 3.67 µM

## O=S(=O)(Nc1cc(F)cc(Cl)c1)c1ccc(-c2cnc(C3CC3)o2)cc1
BT-549 breast
  GI50: 0.933 µM
  TGI: 18.8 µM
K-562 leukemia
  GI50: 0.422 µM
  TGI: > 100 µM
MOLT-4 leukemia
  GI50: 2.55 µM
  TGI: > 100 µM
NCI-H522 lung
  GI50: 1.09 µM
  TGI: 16.5 µM
RXF 393 renal
  GI50: 1.07 µM
  TGI: 6.93 µM
SK-MEL-2 melanoma
  GI50: 4.66 µM
  TGI: 26.9 µM

## CCOC(=O)/C=C/C(C(=O)/C=C/c1ccc(OC2CCCCO2)c(OC)c1)=C(O)\C=C\c1ccc(OC2CCCCO2)c(OC)c1 (configuration not stated)
A498 renal
  GI50: 18.3 µM
  TGI: 35.7 µM
BT-549 breast
  GI50: 5.18 µM
  TGI: 28.4 µM
K-562 leukemia
  GI50: 2.62 µM
  TGI: 75 µM
NCI-H522 lung
  GI50: 2.22 µM
  TGI: 6.68 µM
RXF 393 renal
  GI50: 2.21 µM
  TGI: 5.68 µM
SK-MEL-2 melanoma
  GI50: 3.27 µM
  TGI: 15.2 µM

## CC(C)=C[C@@H]1C[C@H](C)[C@H]2CC[C@H](C)C3=C2[C@](O)(OC3=O)[C@]1(C)O
BT-549 breast
  GI50: > 100 µM
  TGI: > 100 µM
K-562 leukemia
  GI50: > 100 µM
  TGI: > 100 µM
MOLT-4 leukemia
  GI50: > 100 µM
  TGI: > 100 µM
NCI-H522 lung
  GI50: > 100 µM
  TGI: > 100 µM
RXF 393 renal
  GI50: > 100 µM
  TGI: > 100 µM
SK-MEL-2 melanoma
  GI50: > 100 µM
  TGI: > 100 µM

## CCCCc1c(OC)cc(O)c2c1C(=O)c1[nH]c(C(=O)O)c(O)c(=O)c1C2=O
BT-549 breast
  TGI: 52.8 µM
K-562 leukemia
  TGI: > 100 µM
MOLT-4 leukemia
  TGI: > 100 µM
NCI-H522 lung
  TGI: 9.94 µM
RXF 393 renal
  TGI: 8.25 µM
SK-MEL-2 melanoma
  TGI: 4.3 µM
